Values of other authors as cited in US7189722B2, “Aryl spirohydantoin CGRP receptor antagonists” (Merck & Co., Inc., priority 2003, dated 2007).
Read-outs that look alike come from different tables or passages of the source. Ends that are not written are not given here.

What was measured:
facial blood flow [1] = settings: rat, trigeminal ganglion stimulation (Escott et al. 1995)
[2] = test system: middle meningeal artery diameter; settings: rats, electrical stimulation of the dura mater, prior administration (Williamson et al. 1997)
facial blood flow [3] = settings: marmoset, electrical stimulation of the trigeminal ganglion (Doods et al. 2000)

With “CGRP(8-37): a peptide CGRP antagonist (VTHRLAGLLSRSGGVVKNNFVPTNVGSKAF; ends and bridges not checked; UniProt P06881 90-119, looked up, fragment)” as the compound, how does the “effect on increase of facial blood flow” value (facial blood flow [1]) read?
The value was “inhibited”.

What about the “effect on increase of middle meningeal artery diameter” value [2] of the same compound?
Its value is “blocked”.

For `NCCCC[C@H](NC(=O)[C@@H](Cc1cc(Br)c(O)c(Br)c1)NC(=O)N1CCC(N2Cc3ccccc3NC2=O)CC1)C(=O)N1CCN(c2ccncc2)CC1` [BIBN4096BS], which “effect on increase of facial blood flow” value (facial blood flow [3]) is on record?
The value was “blocked”.
